Values quoted from earlier work, collected in patent publication US7763563B2, “Niobium compounds and hydrates thereof, formulations containing the same, and methods of providing specifications therefor” (H. C. Starck GmbH, priority 2006, dated 2010).

Details: prior art compounds, Limar et al.

water solubility: 40 g Nb/1
Substance: (NH4)3[Nb(O)(C2O4)3]*x H2O
